From BindingDB's records for doi:10.1016/0006-2952(86)90769-0 (Wyeth Laboratories, 1986) come the findings set out here.

Assay [1] has as its target T1, Alpha-2C adrenergic receptor (Rattus norvegicus, UniProt P22086).
T1 sequence (P22086 whole entry): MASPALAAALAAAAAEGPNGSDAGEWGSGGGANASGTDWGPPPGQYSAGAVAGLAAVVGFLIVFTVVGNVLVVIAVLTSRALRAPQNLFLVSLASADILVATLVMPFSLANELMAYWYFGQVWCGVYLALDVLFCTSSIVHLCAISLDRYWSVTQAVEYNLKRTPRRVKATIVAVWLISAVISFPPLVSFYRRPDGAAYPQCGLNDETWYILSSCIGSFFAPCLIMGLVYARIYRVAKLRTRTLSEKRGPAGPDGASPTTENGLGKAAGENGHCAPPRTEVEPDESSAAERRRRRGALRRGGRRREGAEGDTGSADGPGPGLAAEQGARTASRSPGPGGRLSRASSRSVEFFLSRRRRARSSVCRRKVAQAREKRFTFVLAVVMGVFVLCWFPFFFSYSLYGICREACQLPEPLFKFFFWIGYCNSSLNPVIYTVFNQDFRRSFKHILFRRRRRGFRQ

The target of assay [2] is T2, Muscarinic acetylcholine receptor M2 (Rattus norvegicus, UniProt P10980).
T2 sequence (P10980 whole entry): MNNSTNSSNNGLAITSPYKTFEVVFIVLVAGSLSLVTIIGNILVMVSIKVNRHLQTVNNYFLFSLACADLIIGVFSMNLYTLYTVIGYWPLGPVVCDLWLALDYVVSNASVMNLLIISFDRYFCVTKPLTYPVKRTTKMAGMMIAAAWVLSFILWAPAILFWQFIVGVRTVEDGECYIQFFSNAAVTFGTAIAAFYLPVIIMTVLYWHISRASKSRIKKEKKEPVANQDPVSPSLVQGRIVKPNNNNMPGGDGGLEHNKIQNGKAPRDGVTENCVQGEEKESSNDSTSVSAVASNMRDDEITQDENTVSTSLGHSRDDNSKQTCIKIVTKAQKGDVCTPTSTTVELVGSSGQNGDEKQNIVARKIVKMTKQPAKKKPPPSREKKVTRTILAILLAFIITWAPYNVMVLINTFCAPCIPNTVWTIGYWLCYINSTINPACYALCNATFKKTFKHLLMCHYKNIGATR

Another assay deals with Histamine H1 receptor (Rattus norvegicus, UniProt P31390).
Sequence of Histamine H1 receptor (P31390 whole entry): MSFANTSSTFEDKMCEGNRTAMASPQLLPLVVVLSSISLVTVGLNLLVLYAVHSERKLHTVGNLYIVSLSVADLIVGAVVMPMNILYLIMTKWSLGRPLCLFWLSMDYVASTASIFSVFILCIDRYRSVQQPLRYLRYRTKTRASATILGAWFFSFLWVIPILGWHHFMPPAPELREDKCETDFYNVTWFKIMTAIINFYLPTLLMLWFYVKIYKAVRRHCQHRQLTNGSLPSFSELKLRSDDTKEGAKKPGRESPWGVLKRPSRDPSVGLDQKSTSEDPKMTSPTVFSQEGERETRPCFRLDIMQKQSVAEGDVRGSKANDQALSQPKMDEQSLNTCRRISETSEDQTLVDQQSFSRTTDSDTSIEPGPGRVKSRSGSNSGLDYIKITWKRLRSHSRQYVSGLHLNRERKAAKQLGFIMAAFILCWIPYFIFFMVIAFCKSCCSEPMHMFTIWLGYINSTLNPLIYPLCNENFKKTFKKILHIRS

By pKi is commonly meant the Ki on a negative log10 scale, so that one unit is a factor of ten.

pKi: −log10 of the molar value.

For the molecule `CNCCCN1c2ccccc2CCc2ccccc21` [Desmethylimipramine], the negative-log Ki (pKi) in assay [1] was less than 5.00; in assay [2], 7.30.
For the molecule `COc1ccc(C(CN(C)C)C2(O)CCCCC2)cc1` (stereo not given) [NSC_62923], the pKi (in assay [1]; in assay [2]; at Histamine H1 receptor) was less than 5.00 throughout.
